24 molecules from US6670367B1, “Azinyloxy, and phenoxy-diaryl-carboxylic acid derivatives, their preparation and use as mixed ETA/ETB endothelin receptor antagonists” (Abbott GmbH & Co., KG, priority 1996, dated 2003) can be followed below.

The target in data set [1] is T1, human ETB receptor (Homo sapiens, UniProt P24530).
T1 construct: expressed in transfected cells; host or cells: CHO cells (membrane preparation)
T1 sequence (P24530 27-442): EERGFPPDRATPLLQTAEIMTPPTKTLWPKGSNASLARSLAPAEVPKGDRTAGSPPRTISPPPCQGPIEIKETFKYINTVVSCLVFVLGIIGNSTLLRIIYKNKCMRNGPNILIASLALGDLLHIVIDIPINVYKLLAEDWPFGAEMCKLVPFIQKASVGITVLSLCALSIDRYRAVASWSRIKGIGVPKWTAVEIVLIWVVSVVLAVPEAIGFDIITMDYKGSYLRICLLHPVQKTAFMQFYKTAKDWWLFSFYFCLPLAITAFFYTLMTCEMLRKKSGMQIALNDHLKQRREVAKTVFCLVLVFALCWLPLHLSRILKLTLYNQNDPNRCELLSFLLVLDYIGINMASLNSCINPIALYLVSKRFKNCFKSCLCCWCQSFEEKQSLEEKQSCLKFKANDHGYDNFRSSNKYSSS
Nature of the data set: ETB receptor binding assay (125I-ET3, membranes of receptor-expressing CHO cells). As to conditions: cloned human ETB receptor, CHO cell membranes, 25 pM 125I-ET3, 25° C., 30 min. As for the experimental part:
(§1) Cloned human ETA or ETB receptor-expressing CHO cells were employed for binding studies.
(§2) The ETA or ETB receptor-expressing CHO cells were grown in DMEM NUT MIX F12 medium (Gibco, No. 21331-020) with 10% fetal calf serum (PAA Laboratories GmbH, Linz, No. A15-022), 1 mM glutamine (Gibco No. 25030-024), 100 U/ml penicillin and 100 μg/ml streptomycin (Gibco, Sigma No. P-0781). After 48 hours, the cells were washed with PBS and incubated with 0.05% trypsin-containing PBS at 37° C. for 5 minutes. Neutralization with medium was then carried out, and the cells were collected by centrifugation at 300×g.
(§3) For the membrane preparation, the cells were adjusted to a concentration of 10^8 cells/ml of buffer (50 mM tris.HCL buffer, pH 7.4) and then disintegrated by ultrasound (Branson Sonifier 250, 40-70 seconds/constant/output 20).
(§4) For the ETA and ETB receptor binding assays, the membranes were suspended in incubation buffer (50 mM tris-HCl, pH 7,4 with 5 mM MnCl2, 40 μg/ml bacitracin and 0.2% BSA) at a concentration of 50 μg of protein per assay mixture, and incubated with 25 pM ^125I-ET1 (ETA receptor assay) or 25 pM ^125I-ET3 (ETB receptor assay) in the presence and absence of test substance at 25° C. The nonspecific binding was determined with 10^−7 M ET1. Filtration was carried out after 30 min through GF/B glassfiber filters (Whatman, England) in a Skatron cell collector (Skatron, Lier, Norway) to separate free and bound radio ligands, and the filters were washed with ice-cold tris-HCl buffer, pH 7.4 with 0.2% BSA. The radioactivity collected on the filters was quantified using a
(§5) Packard 2200 CA liquid scintillation counter.

The target in data set [2] is T2, human ETA receptor (Homo sapiens, UniProt P25101).
T2 construct: expressed in transfected cells; host or cells: CHO cells (membrane preparation)
T2 sequence (P25101 21-427): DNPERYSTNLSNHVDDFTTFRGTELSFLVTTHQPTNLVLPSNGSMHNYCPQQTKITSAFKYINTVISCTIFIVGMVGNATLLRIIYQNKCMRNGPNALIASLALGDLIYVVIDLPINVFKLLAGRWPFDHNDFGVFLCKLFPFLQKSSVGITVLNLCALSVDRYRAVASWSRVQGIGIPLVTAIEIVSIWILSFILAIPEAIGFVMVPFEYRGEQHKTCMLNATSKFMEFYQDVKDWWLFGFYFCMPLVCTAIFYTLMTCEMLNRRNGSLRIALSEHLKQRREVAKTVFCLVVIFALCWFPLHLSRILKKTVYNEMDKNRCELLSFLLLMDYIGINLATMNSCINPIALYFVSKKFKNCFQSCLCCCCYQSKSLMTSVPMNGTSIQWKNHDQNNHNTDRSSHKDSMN
Nature of the data set: ETA receptor binding assay (125I-ET1, membranes of receptor-expressing CHO cells). As to conditions: cloned human ETA receptor, CHO cell membranes, 25 pM 125I-ET1, 25° C., 30 min. As for the experimental part:
as §1, §2, §3, §4, §5

Regarding `Cc1cc(C)nc(OC(C(=O)O)C(OCCc2ccccc2)(c2ccccc2)c2ccccc2)n1` (centres unmarked) [Compound I-720, 2-(4,6-Dimethyl-2-pyrimidinyloxy)-3-(2-phenylethoxy)-3,3-diphenyl propionic Acid], the melting point lay within 130 to 133 °C. `COc1cc(C)nc(OC(C(=O)O)C(OCCc2ccc(OC)c(OC)c2)(c2ccccc2)c2ccccc2)n1` (centres unmarked) [Compound I-482, 2-(4-Methoxy-6-methyl-2-pyrimidinyloxy)-3-(2-(3,4-dimethoxyphenyl)ethoxy)-3,3-diphenylpropionic Acid]: the Ki in data set [1] worked out at 14 nM; in data set [2] it was 2 nM.

Consider `COc1cc(C)nc(OC(C(=O)O)C(OCCc2ccc(Cl)cc2)(c2ccccc2)c2ccccc2)n1` (centres unmarked) [Compound I-746, 2-(4-Methoxy-6-methyl-2-pyrimidinyloxy)-3-(2-(4-chlorophenyl)ethoxy)-3,3-diphenylpropionic Acid], for which the melting point lay within 93 to 98 °C.

For the molecule `COc1ccc(CCOC(c2ccc(C)cc2)(c2ccc(C)cc2)C(Oc2nc(OC)c3c(n2)OCC3)C(=O)O)cc1` (centres unmarked) [Compound I-355], the inhibitory constant (Ki) was determined as 82 nM in data set [1] and 132 nM in data set [2]. For `COc1cc(CCOC(c2ccccc2)(c2ccccc2)C(Oc2nc3c(c(OC)n2)CCC3)C(=O)O)cc(OC)c1` (centres unmarked) [Compound I-321] the same measures were 290 nM and 340 nM.

For `CCc1ccc(C(OCCc2ccc(OC)c(OC)c2)(c2ccc(CC)cc2)C(Oc2nc(C)cc(OC)n2)C(=O)O)cc1` (centres unmarked) [Compound I-116, 2-(4-Methoxy-6-methyl-2-pyrimidinyloxy)-3-(2-(3,4-dimethoxyphenyl)ethoxy)-3,3-di(4-ethylphenyl)propionic Acid], the inhibition constant (Ki) in data set [1] and in data set [2] was 35 nM each time. The molecule `CCc1ccc(C(OCCc2ccc(OC)cc2)(c2ccc(CC)cc2)C(Oc2nc(C)cc(C)n2)C(=O)O)cc1` (centres unmarked) [Compound I-148, 2-(4,6-Dimethyl-2-pyrimidinyloxy)-3-(2-(4-methoxyphenyl)ethoxy)-3,3-di(4-ethylphenyl)propionic Acid] showed a melting point of 130 to 133 °C.

Regarding `COc1ccc(CCCOC(c2ccccc2)(c2ccccc2)C(Oc2nc(C)cc(OC)n2)C(=O)O)cc1` (centres unmarked) [Compound I-554, 2-(4-Methoxy-6-methyl-2-pyrimidinyloxy)-3-(3-(4-methoxyphenyl)propoxy)-3,3-diphenylpropionic Acid], the melting point lay within 160 to 165 °C.

The molecule `CCCOc1ccc(CCOC(c2ccccc2)(c2ccccc2)C(Oc2nc(C)cc(OC)n2)C(=O)O)cc1` (centres unmarked) [Compound I-69, 2-(4-Methoxy-6-methyl-2-pyrimidinyloxy)-3-(2-(4-propoxyphenyl)ethoxy)-3,3-diphenylpropionic Acid] gave a melting point of 115 to 119 °C. In the case of `CCOc1ccc(CCOC(c2ccccc2)(c2ccccc2)C(Oc2nc(C)cc(C)n2)C(=O)O)cc1OC` (centres unmarked) [Compound I-146, 2-(4,6-Dimethyl-2-pyrimidinyloxy)-3-(2-(4-ethoxy-3-methoxyphenyl)ethoxy)-3,3-diphenylpropionic Acid], the Ki in data set [1] was 29 nM; in data set [2] it was 4 nM. In turn, `COc1cc(C)nc(OC(C(=O)O)C(OCCc2ccccc2OC)(c2ccc(Cl)cc2)c2ccc(Cl)cc2)n1` (centres unmarked) [Compound I-487, 2-(4-Methoxy-6-methyl-2-pyrimidinyloxy)-3-(2-(2-methoxyphenyl)ethoxy)-3,3-di(4-chlorophenyl)propionic Acid] registered a melting point of 85 to 90 °C. As to `Cc1cc(C)nc(OC(C(=O)O)C(OCCCc2ccccc2Cl)(c2ccccc2)c2ccccc2)n1` (centres unmarked) [Compound I-384, 2-(4,6-Dimethyl-2-pyrimidinyloxy)-3-(3-(2-chlorophenyl)propoxy)-3,3-diphenylpropionic Acid], the melting point was in the range of 172 to 178 °C.

For the molecule `COc1ccc(CCOC(c2ccccc2)(c2ccccc2)[C@@H](Oc2nc(C)cc(C)n2)C(=O)O)cc1OC` [I-445 (R) enantiomer], the inhibitory constant (Ki) in data set [1] was found to be 140 nM; in data set [2] it was 65 nM.

As to `COc1ccc(CCOC(c2ccccc2)(c2ccccc2)[C@H](Oc2nc(C)cc(C)n2)C(=O)O)cc1OC` [I-445 (S) enantiomer, (S)-2-(4,6-Dimethylpyrimidin-2-yloxy)-3-(2-(3,4-dimethoxyphenyl)ethoxy)-3,3-diphenylpropionic Acid], the Ki was found to be 4.1 nM in data set [1] and 1.3 nM in data set [2]. `CCCCOc1ccc(CCOC(c2ccccc2)(c2ccccc2)C(Oc2nc(C)cc(C)n2)C(=O)O)cc1` (centres unmarked) [Compound I-70, 2-(4,6-Dimethyl-2-pyrimidinyloxy)-3-(2-(4-butoxyphenyl)ethoxy)-3,3-diphenylpropionic Acid] displayed a melting point of 122 to 125 °C. Molecule `COc1cc(C)nc(OC(C(=O)O)C(OCCc2ccc(C)cc2)(c2ccc(Cl)cc2)c2ccc(Cl)cc2)n1` (centres unmarked) [Compound I-710, 2-(4-Methoxy-6-methyl-2-pyrimidinyloxy)-3-(2-(4-methylphenyl)ethoxy)-3,3-di(4-chlorophenyl)propionic Acid] returned a melting point of 90 to 100 °C. `COc1ccc(CCOC(c2ccccc2)(c2ccccc2)C(Oc2nc(C)cc(C)n2)C(=O)O)cc1` (centres unmarked) [Compound I-585, 2-(4,6-Dimethyl-2-pyrimidinyloxy)-3-(2-(4-methoxyphenyl)ethoxy)-3,3-diphenylpropionic Acid]: the values for the Ki in data set [1] and in data set [2] were 23 nM and 6 nM, respectively. For the molecule `COc1cc(C)nc(OC(C(=O)O)C(OCCc2ccccc2)(c2ccccc2)c2ccccc2)n1` (centres unmarked) [Compound I-719, 2-(4-Methoxy-6-methyl-2-pyrimidinyloxy)-3-(2-phenylethoxy)-3,3-diphenylpropionic Acid], the melting point is 155 °C (dec.). `COc1cc(C)nc(OC(C(=O)O)C(O/C=C/Cc2ccccc2)(c2ccccc2)c2ccccc2)n1` (centres unmarked) [Compound I-44, 2-(4-Methoxy-6-methyl-2-pyrimidinyloxy)-3-(3-phenyl-(2E)-propenoxy)-3,3-diphenylpropionic Acid] came in with a melting point of 171 to 174 °C.

Turning to `CCc1ccc(C(OCCc2ccc(OC)cc2)(c2ccc(CC)cc2)C(Oc2nc(C)cc(OC)n2)C(=O)O)cc1` (centres unmarked) [Compound I-147, 2-(4-Methoxy-6-methyl-2-pyrimidinyloxy)-3-(2-(4-methoxyphenyl)ethoxy)-3,3-di(4-ethylphenyl)propionic Acid], the melting point fell in the range of 150 to 155 °C. Same read-out and setting: next, `COc1cc(C)nc(OC(C(=O)O)C(OCCc2ccc(C)cc2)(c2ccccc2)c2ccccc2)n1` (centres unmarked) [Compound I-465, 2-(4-Methoxy-6-methyl-2-pyrimidinyloxy)-3-(2-(4-methylphenyl)ethoxy)-3,3-diphenylpropionic Acid]: 145 to 147 °C; `Cc1cc(C)nc(OC(C(=O)O)C(O/C=C/Cc2ccccc2)(c2ccccc2)c2ccccc2)n1` (centres unmarked) [Compound I-27, 2-(4,6-Dimethyl-2-pyrimidinyloxy)-3-(3-phenyl-(2E)-propenoxy)-3,3-diphenylpropionic Acid]: 128 to 133 °C.

As to `CCCCOc1ccc(CCOC(c2ccccc2)(c2ccccc2)C(Oc2nc(C)cc(OC)n2)C(=O)O)cc1` (centres unmarked) [Compound I-71, 2-(4-Methoxy-6-methyl-2-pyrimidinyloxy)-3-(2-(4-butoxyphenyl)ethoxy)-3,3-diphenylpropionic Acid], the melting point fell in the range of 118 to 122 °C.

The molecule `COc1ccc(CCCOC(c2ccccc2)(c2ccccc2)C(Oc2nc(C)cc(C)n2)C(=O)O)cc1` (centres unmarked) [Compound I-555, 2-(4,6-Dimethyl-2-pyrimidinyloxy)-3-(3-(4-methoxyphenyl)propoxy)-3,3-diphenylpropionic Acid] showed a melting point of 165 to 170 °C.
